Like-named read-outs stand apart in the source and are kept apart here. Values belong to the molecule of their own block, whether it stands above or below them.
Key:
AT1R [1] = molecular target: T1, AT1R (Homo sapiens, UniProt P30556); assay: Intramolecular BRET assay of β-arrestin 2 conformational changes (RLucII-β-arr2-GFP10); assay type: cell-based
T1 construct: expressed in transfected cells; host or cells: HEK293T
T1 sequence (P30556 1-359): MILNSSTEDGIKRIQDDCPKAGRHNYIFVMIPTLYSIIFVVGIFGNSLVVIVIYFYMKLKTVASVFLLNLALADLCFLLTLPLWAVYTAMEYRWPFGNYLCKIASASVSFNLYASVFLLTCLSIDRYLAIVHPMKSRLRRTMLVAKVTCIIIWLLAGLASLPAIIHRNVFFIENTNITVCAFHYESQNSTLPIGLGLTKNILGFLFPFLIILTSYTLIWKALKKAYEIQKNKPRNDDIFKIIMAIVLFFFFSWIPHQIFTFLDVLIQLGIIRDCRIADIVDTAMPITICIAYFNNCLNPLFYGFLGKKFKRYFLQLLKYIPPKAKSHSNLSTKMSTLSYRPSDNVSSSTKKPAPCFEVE
Protocol: (§1) Receptor promoted activation of β-arrestin results in a conformational rearrangement that can be monitored by BRET-based double brilliance biosensors assessing changes in BRET between RLucII and GFP10 fused respectively to the N- and C-termini of β-arrestins[35]–[37]. Therefore, to assess whether the recruitment of β-arrestins to the AT1R by Ang-(1-7) leads to activation, we monitored the agonist-promoted change in the intramolecular BRET.
(§2) HEK293T cells were cultured in DMEM supplemented with 10% heat-inactivated fetal bovine serum and 100 U/mL penicillin/streptomycin at 37 °C under 5% CO2. […]
(§3) HEK293T cells transiently expressing the AT1R (or AT1R-GFP) and BRET-based biosensors (Gαq-RLucII or Gαi3-RLucII, Gβ1 and Gγ1-GFP10; RLucII-β-arr1-GFP10; RLucII-β-arr2-GFP10; β-arr1-RLucII; β-arr2-RLucII) were washed once with PBS, detached, and seeded in 96-well white plates (OptiPlate – PerkinElmer, Waltham, MA, USA). Following agonist stimulation, cells were incubated at 37 °C and the luciferase substrate (coelenterazine H for BRET1 or coelenterazine 400a for BRET2 – Biotium, Hayward, CA, USA) was added 5 min before reading BRET in a Victor^TM X Light Luminescence microplate reader (PerkinElmer) equipped with different donor/acceptor emission filter sets. […]

AT1R [2] = molecular target: T1, AT1R; assay: Intracellular calcium mobilization assay (FLIPR Calcium 5) in HEK293T cells expressing AT1R; assay type: cell-based
Protocol: Cells were seeded in 100-mm dishes and 48 hours before the experiments, transiently transfected with the AT1R (alone or in combination with BRET-based biosensors). Transient transfections were performed using 25 kDa linear polyethylenimine (PEI – Polysciences, Warrington, PA, USA) at a ratio of 3:1 PEI/DNA. The total amount of transfected DNA was kept constant (10 μg/dish) by the addition of salmon sperm DNA. Twenty-four hours after transfection, HEK293T cells were washed once with PBS, detached, and seeded in 96-well clear-bottom black plates (Cellstar – Greiner Bio-One, Monroe, NC, USA) precoated with poly-L-lysine (Sigma-Aldrich, St. Louis, MO, USA). Cells were cultured in supplemented DMEM without phenol red (Gibco) at a density of 50,000 cells/well for an additional 24-hour period. […] To provide a baseline level, fluorescence was recorded every 2 seconds during 16 seconds. Following agonist stimulation, fluorescence continued to be recorded every 2 seconds for 90 seconds.

AT1R [3] = molecular target: T1, AT1R; assay: BRET-based biosensor assay of Gi3 activation in HEK293T cells expressing AT1R; assay type: cell-based
Protocol: (§4) HEK293T cells were cultured in DMEM supplemented with 10% heat-inactivated fetal bovine serum and 100 U/mL penicillin/streptomycin at 37 °C under 5% CO2. Cells were seeded in 100-mm dishes and 48 hours before the experiments, transiently transfected with the AT1R (alone or in combination with BRET-based biosensors). Transient transfections were performed using 25 kDa linear polyethylenimine (PEI – Polysciences, Warrington, PA, USA) at a ratio of 3:1 PEI/DNA. The total amount of transfected DNA was kept constant (10 μg/dish) by the addition of salmon sperm DNA.
as §3

[4] = system: isoproterenol-induced cardiac hypertrophy; assay: End-diastolic pressure (EDP) in rats with isoproterenol-induced cardiac hypertrophy; assay type: in vivo, Wistar rats; conditions: 24 μg/kg per hour, osmotic mini-pump, 7 days, concomitantly with isoproterenol
Protocol: (§5) The isoproterenol-induced cardiac hypertrophy experimental model was chosen aiming to avoid any involvement of the RAS, as it is known that other models such as pressure-overload, SHR, or mRen2 involve RAS components[50],[60],[61]. Cardiac hypertrophy was induced in male, 6 weeks-old Wistar rats by administration of Isoproterenol [(Iso) 2 mg/kg per day, i.p. diluted in saline, for 7 days]. All experimental protocols were performed in accordance with the Brazilian Council for Control of Animal Experimentation - “Conselho Nacional de Controle de Experimentação Animal” (CONCEA), Brazil; and approved by the Animal Ethical Committee from the Ribeirão Preto Medical School, University of São Paulo (CEUA).
Rats receiving Iso were randomly submitted to treatment for 7 days with either vehicle, Ang-(1-7) [24 μg/kg per hour, via ALZET® osmotic minipumps (Durect, Cupertino, CA, USA)], Ang-(1-7) plus Losartan (10 mg/kg per day orally), Ang-(1-7) plus A779 (744 μg/kg per day i.p.), or Ang-(1-7) plus Losartan plus A779 (same doses as described). […]
Rats were anesthetized with isoflurane (5% for induction and 2–2.5% to maintain anesthesia). […] After stabilization, signals were continuously recorded using a pressure-volume conductance system (MPVS, Millar Instruments) connected to a Power Lab/4SP (ADI Instruments, Sydney, NSW, Australia) feeding the digital signal to an […].

AT1R [5] = molecular target: T1, AT1R; assay: BRET-based biosensor assay of Gq activation (Gαq-RLucII / Gγ1-GFP10) in HEK293T cells expressing AT1R; assay type: cell-based
Protocol: as §4, §3

AT1R [6] = molecular target: T1, AT1R; assay: Intramolecular BRET assay of β-arrestin 1 conformational changes (RLucII-β-arr1-GFP10); assay type: cell-based
Protocol: as §1, §2, §3

AT1R [7] = molecular target: T1, AT1R; assay: ERK1/2 phosphorylation by Western blotting in cells transiently expressing the AT1R; assay type: cell-based; conditions: 1 μM, 2-30 minutes, compared to AngII
Protocol: Cells transiently expressing the AT1R were seeded on 6-well plates in fully supplemented DMEM and kept at 37 °C. […] Cells were lysed with lysis buffer consisting of 10 mM Tris-HCl, pH 7.5, 150 mM NaCl, 1 mM EDTA, 1mM EGTA, 0.1% SDS, 1% Nonidet P-40 and the following protease inhibitors: 2 mM PMSF, 100 µg/mL SBTI, 10 µg/mL leupeptin, 100 µg/mL aprotinin, 10 mM benzamidin and 2 mM sodium orthovanadate. Following homogenization at 4 °C, during 30 minutes, cellular lysates were centrifuged for 15 minutes (18,000 × g) at 4 °C and total protein from the supernatants was quantified by the Bradford method (Bio-Rad, Hercules, CA). After that, 50 µg of total protein were resolved in SDS-PAGE, transferred to nitrocellulose membranes and Western blotting was performed against total ERK (tERK) and phosphorylated ERK (pERK) (both antibodies from Santa Cruz Biotechnology, Santa Cruz, CA, USA; and molecular size markers from ThermoFisher Scientific, Catalog Number 26610). Blots were captured with ImageQuant 350 (GE Healthcare, Piscataway, NJ, USA). Densitometric values obtained after analyses with ImageJ program (http://rsb.info.nhi.gov/ij/) were used to calculate a ratio pERK/tERK, and corresponding results were plotted using GraphPad software (GraphPad, San Diego, CA) as fold of increase over the basal value obtained with vehicle-treated control.

AT1R [8] = assay: BRET assay of β-arrestin 2 recruitment to AT1R-GFP (β-arr2-RLucII); assay type: cell-based; conditions: for β-arr2 recruitment Emax (%): percentage of the maximum values obtained for AngII
Protocol: as §4
(§6) HEK293T cells transiently expressing the AT1R (or AT1R-GFP) and BRET-based biosensors (Gαq-RLucII or Gαi3-RLucII, Gβ1 and Gγ1-GFP10; RLucII-β-arr1-GFP10; RLucII-β-arr2-GFP10; β-arr1-RLucII; β-arr2-RLucII) were washed once with PBS, detached, and seeded in 96-well white plates (OptiPlate – PerkinElmer, Waltham, MA, USA). Following agonist stimulation, cells were incubated at 37 °C and the luciferase substrate (coelenterazine H for BRET1 or coelenterazine 400a for BRET2 – Biotium, Hayward, CA, USA) was added 5 min before reading BRET in a Victor^TM X Light Luminescence microplate reader (PerkinElmer) equipped with different donor/acceptor emission filter sets. The BRET signal was determined as the ratio of light emitted by fluorescently-labeled biosensors, detected with energy acceptor filters (530 ± 20 nm for BRET1 or 515 ± 20 nm for BRET2), and light emitted by RLucII-tagged biosensors, detected with energy donor filters (480 ± 20 nm for BRET[1] or 410 ± 40 nm for BRET2). The specific BRET signal was defined as the difference between the total BRET signals and the one obtained with RLucII alone.

AT1R [9] = molecular target: T1, AT1R; assay: Competition binding assay against [3H]AngII in whole HEK293T cells transiently expressing the AT1R
Protocol: as §4
Binding assays were performed in whole HEK293T cells at 48 hours after transfection. Twenty-four hours before the experiment, transfected cells were transferred to 24-well plates, treated with poly-L-lysine, and then incubated overnight at 37 °C, in a 5% CO2 environment. […] Samples were collected and mixed with 3 mL of scintillation liquid, and radioactivity was measured using a Liquid Scintillation Counter (Packard Tri-Carb 2100TR – PerkinElmer).

AT1R [10] = assay: BRET assay of β-arrestin 1 recruitment to AT1R-GFP (β-arr1-RLucII); assay type: cell-based; conditions: for β-arr1 recruitment Emax (%): percentage of the maximum values obtained for AngII
Protocol: as §4, §6

[11] = system: isoproterenol-induced cardiac hypertrophy; assay: Isoproterenol-induced cardiac hypertrophy in rats (HW/BW ratio, left ventricular wall thickness); assay type: in vivo, Wistar rats; conditions: 7 days
Protocol: as §5
Rats receiving Iso were randomly submitted to treatment for 7 days with either vehicle, Ang-(1-7) [24 μg/kg per hour, via ALZET® osmotic minipumps (Durect, Cupertino, CA, USA)], Ang-(1-7) plus Losartan (10 mg/kg per day orally), Ang-(1-7) plus A779 (744 μg/kg per day i.p.), or Ang-(1-7) plus Losartan plus A779 (same doses as described). Doses and administration methods of drugs were based in previously published literature[62]–[66].
Cardiac hypertrophy was confirmed by cardiac mass and histomorphometric analyses. To determine cardiac mass, hearts were removed, dried and weighted. Heart weight (HW) was normalized by the body weight (BW) (HW/BW*1000). For histomorphometric analysis, hearts were cut transversely, fixed in paraformaldehyde (4%) for 24 hours, and kept in ethanol (70%) until dehydration, which consisted in sequential washes with 70, 80, 90 and 100% ethanol. Samples were cleared in xylene and embedded in paraffin. Transversal sections (6 µm) were obtained from the cardiac samples at intervals of 40 µm and stained with hematoxylin and eosin. Images were captured using an Olympus BK 50 microscope (Olympus Corporation of the Americas, Center Valley, PA, USA) equipped with a SPOT RT3 digital camera (Diagnostic Instruments, Inc., Sterling Heights, MI, USA) and measured with ImageJ software (NIH, USA).

[12] = molecular target: T2, angiotensin II type 1 receptor (UniProt P30556 1-359); assay: radioligand binding; competition against 0.5 nM [^3H]AngII on whole HEK293T cells transiently expressing AT1R; 24 h at 4 °C; 25 mM Tris-HCl pH 7.4, 5 mM MgCl2, 0.1% BSA, 100 μg/mL bacitracin; conditions: one partner purified
T2 construct: AngII type 1 (AT1) receptor, a GPCR; also called AT1R; AT1 receptor; source: HEK293T, transiently transfected, on whole cells
T2 sequence (looked up): T1 sequence (P30556 1-359)

[13] = molecular target: T2, angiotensin II type 1 receptor; assay: cell-based or functional assay
AT1R-GFP = molecular target: T3, AT1R-GFP (UniProt P30556 1-359); assay: cell-based or functional assay
T3 sequence (looked up): T1 sequence (P30556 1-359)

[14] = 24 μg/kg per hour, osmotic mini-pump, concomitantly with isoproterenol

EC50 (AT1R [1]; intramolecular BRET, mean ± SEM, read-out: β-arr2 conf. changes pEC50 (converted)): 1380 nM | Emax (AT1R [1]; read-out: β-arr2 conf. changes Emax (%)): 64.4% | Emax (AT1R [2]; HEK-293T, read-out: Ca2+ mobilization Emax (%)): 24.8% | Gi3 activation, in words (AT1R [3]): did not trigger Gi3 activation | Emax (AT1R [5]; HEK-293T): 12.8% | EC50 (AT1R [6]; intramolecular BRET, mean ± SEM, read-out: β-arr1 conf. changes pEC50 (converted)): 245 nM | Emax (AT1R [6]; read-out: β-arr1 conf. changes Emax (%)): 69.1% | β-arr2 recruitment pEC50 (AT1R [8]; BRET, mean ± SEM): 6.56 ± 0.09 | Ki (AT1R [9]; competition against 0.5 nM [3H]AngII, HEK293T cells expressing AT1R, mean ± SEM, read-out: Binding pKi (converted)): 219 nM | Ki (AT1R [9]; competition binding against [3H]AngII, read-out: affinity for the AT1R): ~200 nM | β-arr1 recruitment pEC50 (AT1R [10]; BRET, mean ± SEM): 6.38 ± 0.14
Molecule: CC[C@H](C)[C@H](NC(=O)[C@H](Cc1ccc(O)cc1)NC(=O)[C@@H](NC(=O)[C@H](CCCNC(=N)N)NC(=O)[C@@H](N)CC(=O)O)C(C)C)C(=O)N[C@@H](Cc1c[nH]cn1)C(=O)N1CCC[C@H]1C(=O)O [Ang-(1-7), Asp-Arg-Val-Tyr-Ile-His-Pro]
intracellular Ca2+ mobilization, in words (AT1R [2]; concentration-response curve, HEK293T cells expressing AT1R): only a weak increase in intracellular Ca^2+ levels | end-diastolic pressure (EDP) [4]: completely prevented the increase in EDP | Gq activation (separation of Gαq-RLucII from Gγ1-GFP10), in words (AT1R [5]; any of the concentrations tested, HEK293T cells expressing AT1R): did not promote the separation of Gαq-RLucII from Gγ1-GFP10 | ERK1/2 phosphorylation (AT1R [7]): partial agonist resulting in lower and more transient activation | β-arr2 recruitment Emax (%) (AT1R [8]): 87.7% | β-arr2 recruitment Emax (%) (AT1R [8]; listed as Ang1-7): ~90% | β-arr1 recruitment Emax (%) (AT1R [10]): 67.8% | β-arr1 recruitment Emax (%) (AT1R [10]; listed as Ang1-7): ~70% | cardiac hypertrophy (left ventricular wall thickness) [11, 14]: partially blocked the development of cardiac hypertrophy | heart weight/body weight (HW/BW) ratio [11, 14]: partially blocked

Molecule: CCCCc1nc(Cl)c(CO)n1Cc1ccc(-c2ccccc2-c2nn[nH]n2)cc1 [Losartan, reference compound]
blockade of the effect of Ang-(1-7) on the cardiovascular parameters (HW/BW, wall thickness, EDP) ([11]; co-treatment with Ang-(1-7), 10 mg/kg per day orally): did not prevent the effect of Ang-(1-7)

pKi [12]: 6.66 | β-arrestin 1 conformational change (intramolecular BRET, RLucII-β-arr1-GFP10) in HEK293T cells expressing AT1R, pEC50 [13]: 6.61 | recruitment of β-arr1-RLucII to AT1R-GFP (BRET), pEC50 of the agonist (AT1R-GFP): 6.38
B1: angiotensin-(1-7) (peptide)
peptide: DRVYIHP
notes: heptapeptide angiotensin-(1-7), cut from AngII by ACE2 or from AngI by endopeptidases; printed in three-letter code; also called Ang-(1-7); Ang1-7
